In patent US9034886B2, “4-aminoquinazoline derivatives and uses thereof” (Shanghai Institute of Pharmaceutical Industry, priority 2011, dated 2015):

Tests used:
[1] = test system: A549 human lung cancer cells; assay: In vitro anti-proliferative effect, CCK-8 method, A549; format: cell-based; details: Homo sapiens, A549
Protocol: (§1) The inhibitory activities of the compounds towards Hut78 T lymphocytic leukemia cells, Jurkat E6-1 human T-cell lymphoma, PANC-1 human pancreatic cancer cells, A549 human lung cancer cells, K562 human chronic myelogenous leukemia cells, Hep3B2.1-7 human liver cancer cells, MDA-MB-435s human breast cancer cells. Colo320 human colorectal cancer cell lines, and PC-3 human prostate cancer at two concentrations of 100 μM and 10 μM were determined. The inhibition percentages were obtained through CCK-8 method.

[2] = test system: MDA-MB-435s human breast cancer cells; assay: In vitro anti-proliferative effect, CCK-8 method, MDA-MB-435s; format: cell-based; details: Homo sapiens, MDA-MB-435S
Protocol: as §1

[3] = test system: PC-3 human prostate cancer; assay: In vitro anti-proliferative effect, CCK-8 method, PC-3; format: cell-based; details: Homo sapiens, PC-3 cell strain, CCK-8 method; for inhibition at 10 µM: compound at 10 μM; for inhibition at 100 µM: compound at 100 μM
Protocol: as §1

[4] = test system: Hep3B2.1-7 human liver cancer cells; assay: In vitro anti-proliferative effect, CCK-8 method, Hep3B; format: cell-based; details: Homo sapiens, Hep3B cell strain, CCK-8 method; for inhibition at 10 µM: compound at 10 μM; for inhibition at 100 µM: compound at 100 μM
Protocol: as §1

[5] = test system: Colo320 human colorectal cancer cell lines; assay: In vitro anti-proliferative effect, CCK-8 method, Colo320; format: cell-based; details: Homo sapiens, COLO 320, Colo320 cell strain, CCK-8 method; for inhibition at 10 µM: compound at 10 μM; for inhibition at 100 µM: compound at 100 μM
Protocol: as §1

[6] = test system: Jurkat E6-1 human T-cell lymphoma; assay: In vitro anti-proliferative effect, CCK-8 method, Jurkat E6-1; format: cell-based; details: Homo sapiens, Jurkat E6.1
Protocol: as §1

[7] = Maximum tolerance dose through intragastrical administration; format: in vivo; details: mice, administrated intragastrically
Protocol: Forty ICR mice, half female and half male, weighing […] were divided into four groups, 10 mice in each group. After the mice were fasted for 6 h, the compound to be tested was administrated intragastrically to each group at a volume of 0.3 ml/10 g by using a sterile plastic syringe. General physical signs and the deaths of the animals were record at 1, 2 and 4 h after the administration. The animals were then observed continuously for 14 days and their weights, physical signs and deaths were observed and recorded every day. Dead animals were dissected to see if there was any visible pathological change in the animal's viscera and pathological examination was performed on suspicious tissues and organs. A part of the experimental results is as follows.

[8] = test system: PANC-1 human pancreatic cancer cells; assay: In vitro anti-proliferative effect, CCK-8 method, PANC-1; format: cell-based; details: Homo sapiens, PANC-1
Protocol: as §1

[9] = test system: Hut78 T lymphocytic leukemia cells; assay: In vitro anti-proliferative effect, CCK-8 method, Hut78; format: cell-based; details: Homo sapiens, HuT78, read-out: Hut-78 (inhibition %)
Protocol: as §1

[10] = test system: K562 human chronic myelogenous leukemia cells; assay: In vitro anti-proliferative effect, CCK-8 method, K562; format: cell-based; details: Homo sapiens, K562
Protocol: as §1

HDACs = assay: In vitro inhibition of HDACs (HDAC Inhibitor Drug Screening Kit, Biovision K340-100); format: biochemical; details: for inhibitory activity on HDACs compared with MS-275: concentrations of 2 mM, 200 μM, and 40 μM
Protocol: The in vitro inhibitory activities of the compounds towards HDACs were tested according to the instructions in the HDAC Inhibitor Drug Screening Kit (Biovision/Catalog #K340-100).
(1) The compounds to be tested were each individually prepared as 2 mM, 200 μM and 40 μM solutions and their inhibitory activities at these concentrations were tested.

HDAC1 = HDAC1 (Homo sapiens (Human), UniProt Q13547); assay: In vitro inhibition of subtype HDAC1 (HDAC1 Inhibitor Drug Screening Kit, Biovision); format: biochemical; details: for inhibition at 1 µM / inhibition at 10 µM: read-out: % Inhibition towards HDAC1
Protocol: The in vitro inhibitory activities of the compounds towards the subtype HDAC1 were tested according to the instructions in the HDAC1 Inhibitor Drug Screening Kit (Biovision).
(1) The compounds to be tested were each individually prepared as 10 μM and 1 μM solutions and their inhibitory activities at these concentrations were tested.
Each dilution sample was placed in two wells and the enzyme inhibition IC50 of the compound was tested.

Chain of HDAC1 (Q13547 whole entry): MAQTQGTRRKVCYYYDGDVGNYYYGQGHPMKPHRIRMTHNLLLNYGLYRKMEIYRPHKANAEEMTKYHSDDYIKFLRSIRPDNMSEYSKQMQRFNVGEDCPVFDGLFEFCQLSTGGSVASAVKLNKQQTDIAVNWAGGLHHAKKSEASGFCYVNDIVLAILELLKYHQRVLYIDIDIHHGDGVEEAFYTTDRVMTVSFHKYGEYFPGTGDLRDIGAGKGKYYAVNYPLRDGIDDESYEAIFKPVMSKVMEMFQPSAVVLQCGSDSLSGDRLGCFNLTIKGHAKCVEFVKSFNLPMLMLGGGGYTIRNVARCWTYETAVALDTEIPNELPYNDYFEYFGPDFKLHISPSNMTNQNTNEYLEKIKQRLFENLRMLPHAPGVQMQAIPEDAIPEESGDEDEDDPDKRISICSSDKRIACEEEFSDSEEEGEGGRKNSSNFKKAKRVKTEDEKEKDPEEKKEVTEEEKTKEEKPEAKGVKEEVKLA

Row | SMILES | inhibition at 10 µM [1] [%] | inhibition at 100 µM [1] [%] | inhibition at 10 µM [2] [%] | inhibition at 100 µM [2] [%] | inhibition at 10 µM [3] [%] | inhibition at 100 µM [3] [%] | inhibition at 10 µM [4] [%] | inhibition at 100 µM [4] [%] | inhibition at 10 µM [5] [%] | inhibition at 100 µM [5] [%] | inhibition at 10 µM [6] [%] | inhibition at 100 µM [6] [%] | maximum tolerance dose [7] | inhibition at 10 µM [8] [%] | inhibition at 100 µM [8] [%] | inhibition at 10 µM [9] [%] | inhibition at 100 µM [9] [%] | inhibition at 10 µM [10] [%] | inhibition at 100 µM [10] [%] | Inhibition percentage (%) towards HDACs (HDACs; 40 μM) [%] | further results
1 | Nc1cnccc1NC(=O)c1ccc(Nc2ncnc3ccccc23)cc1 [Compound V-2] | 65.6 | 84.8 | 35.8 | 86.9 | 90.3 | 92.4 | 31.2 | 53.6 | 39.6 | 92.9 | 58.5 | 85.9 | over 2000 mg/kg | 20.7 | 74.1 | 63.4 | 82.8 | 21 | 64.4 | 17.6 | Inhibition percentage (%) towards HDACs (HDACs; 200 μM): 28.0%; Inhibition percentage (%) towards HDACs (HDACs; 2 mM): 77.1%
2 | COc1cc2ncnc(Nc3ccc(C(=O)Nc4ccncc4N)cc3)c2cc1OC [Compound V-4] | -43.9 | -19.4 | -20.7 | -10.4 | 5.2 | 15.9 | -10.2 | -12.1 | 7.1 | 16.8 | 5.4 | 23.7 | over 5000 mg/kg | 14.4 | 11.9 | 66.4 | 95.8 | -1.3 | 38.1 | 36.3 | IC50 (HDACs): 3.29 µM; inhibitory activity according to in vitro IC50 value against HDACs compared with MS-275 (HDACs): better inhibitory activities than MS-275; Inhibition percentage (%) towards HDACs (HDACs; 200 μM): 70.3%; Inhibition percentage (%) towards HDACs (HDACs; 2 mM): 85.3%; inhibitory activity on HDACs compared with MS-275 (HDACs): significantly stronger inhibitory activities than MS-275
3 | COc1ccc2ncnc(Nc3ccc(C(=O)Nc4ccccc4N)cc3)c2c1 [Compound V-5, N-(2-aminophenyl)-4-(6-methoxyquinazoline-4-amino)benzamide] | -44.3 | -13.1 | -14.3 | 84.1 | 0 | 66.7 | 7.3 | 66.6 | 13 | 45.3 | 62.2 | 87.9 | over 2000 mg/kg | 10.5 | 45.9 | 15 | 43.9 | 49.4 | 83.2 | 2.8 | IC50 (HDACs): 7.79 µM; Inhibition percentage (%) towards HDACs (HDACs; 200 μM): 16.8%; Inhibition percentage (%) towards HDACs (HDACs; 2 mM): 36.7%
4 | COc1ccc2ncnc(Nc3ccc(C(=O)Nc4cc(F)ccc4N)cc3)c2c1 [Compound V-6, N-(2-amino-5-fluorophenyl)-4-(6-methoxyquinazoline-4-amino)benzamide] | -16.9 | 45.7 | 8 | 79.1 | 23.7 | 56 | -7 | 57.5 | -5.5 | 59.2 | 27.2 | 93.3 | over 5000 mg/kg | 16.9 | 19.7 | 15.5 | 66.6 | 53.6 | 87.2 | 34.5 | inhibition at 1 µM (HDAC1): 6.47%; inhibition at 10 µM (HDAC1): 50.1%; IC50 (HDACs): 1.83 µM; inhibitory activity according to in vitro IC50 value against HDACs compared with MS-275 (HDACs): better inhibitory activities than MS-275; Inhibition percentage (%) towards HDACs (HDACs; 200 μM): 58.0%; Inhibition percentage (%) towards HDACs (HDACs; 2 mM): 87.1%; inhibitory activity on HDACs compared with MS-275 (HDACs): significantly stronger inhibitory activities than MS-275
5 | Nc1cnccc1NC(=O)c1ccc(CNc2ncnc3ccccc23)cc1 [Compound V-26] | 4.2 | 63.7 | 16.6 | 73.6 | 8.7 | 52.6 | 11.7 | 63.5 | -0.2 | 44.4 | 76.9 | 95.1 |  | 5.1 | 40.8 | 79.6 | 86.9 | 54 | 88.2 | 11.4 | inhibition at 1 µM (HDAC1): 46.4%; inhibition at 10 µM (HDAC1): 88.4%; inhibitory activity against HDAC1 compared with MS-275 (HDAC1; both concentrations 10 μM and 1 μM): superior to that of MS-275; Inhibition percentage (%) towards HDACs (HDACs; 200 μM): 40.2%; Inhibition percentage (%) towards HDACs (HDACs; 2 mM): 82.4%
6 | Nc1ccccc1NC(=O)c1ccc(CNc2ncnc3c(F)cccc23)cc1 [Compound V-43, N-(2-aminophenyl)-4-[(8-fluoroquinazoline-4-amino)methyl]benzamide] | 41.2 | 85.5 | 18.8 | 86.4 | 81.4 | 89.4 | 21.2 | 58.8 | 19.1 | 59.4 | 69.1 | 96.8 | over 5000 mg/kg | 3.1 | 35.9 | 75.7 | 89.6 | 13.8 | 60.8 |  | 
7 | CC(=O)Nc1ccc2ncnc(NCc3ccc(C(=O)Nc4ccccc4N)cc3)c2c1 [Compound V-46, N-(2-aminophenyl)-4-[(6-acetamidoquinazoline-4-amino)methyl]benzamide] | 7.7 | 4.1 | 16.4 | 4.1 | -1.7 | -2.4 | 17.5 | -5 | 13.7 | -9 | 14.8 | 1.9 | over 2000 mg/kg | 8.1 | 70.4 | 16.4 | 93.4 | 27.3 | 18.9 |  | 
8 | CC(=O)Nc1ccc2ncnc(NCc3ccc(C(=O)Nc4ccncc4N)cc3)c2c1 [Compound V-47] | 9.4 | 8 | 21.8 | 29.2 | 7.2 | 12.8 | 11.2 | 19.2 | 11 | 6 | 59.4 | 76.6 | over 5000 mg/kg | 2.8 | 43 | 9.9 | 88.3 | 58 | 62.1 |  | 
